Experiments:
Rat [1] = assay: concentration in liver after dosing; conditions: 1 h; dosed: Potassium Perfluorobutane Sulfonate; 20 mg/kg; oral; Female; Harlan Sprague Dawley
Rat [2] = assay: concentration in brain after dosing; conditions: 1 h; dosed: Potassium Perfluorobutane Sulfonate; 20 mg/kg; oral; Male; Harlan Sprague Dawley
Rat [3] = assay: concentration in plasma after dosing; conditions: dosed: Potassium Perfluorobutane Sulfonate, 4 mg/kg, iv, Male, F344
Rat [4] = assay: concentration in plasma after dosing; conditions: 1 h; dosed: Potassium Perfluorobutane Sulfonate; 4 mg/kg; iv; Female; Harlan Sprague-Dawley
Rat [5] = assay: concentration in plasma after dosing; conditions: dosed: Potassium Perfluorobutane Sulfonate, 4 mg/kg, oral, Male, Harlan Sprague Dawley
Rat [6] = assay: concentration in kidney after dosing; conditions: 3 h; dosed: Potassium Perfluorobutane Sulfonate; 20 mg/kg; oral; Male; Harlan Sprague Dawley
Rat [7] = assay: concentration in liver after dosing; conditions: 24 h; dosed: Perfluorooctanoic acid; 80 mg/kg; oral; Female; Harlan Sprague Dawley
Rat [8] = assay: concentration in liver after dosing; conditions: 0.5 h; dosed: Fluorotelomer alcohol 8+2; 24 mg/kg; oral; Male; Harlan Sprague Dawley
Rat [9] = assay: concentration in brain after dosing; conditions: 3 h; dosed: Perfluorooctanoic acid; 80 mg/kg; oral; Female; Harlan Sprague Dawley
Rat [10] = assay: concentration in liver after dosing; conditions: 48 h; dosed: Perfluorooctanoic acid; 80 mg/kg; oral; Female; Harlan Sprague Dawley
Rat [11] = assay: concentration in liver after dosing; conditions: 1 h; dosed: Fluorotelomer alcohol 8+2; 24 mg/kg; oral; Male; Harlan Sprague Dawley
Rat [12] = assay: concentration in liver after dosing; conditions: 6 h; dosed: Perfluorooctanoic acid; 80 mg/kg; oral; Female; Harlan Sprague Dawley
Rat [13] = assay: concentration in liver after dosing; conditions: 1200 h; dosed: Perfluorooctanoic acid; 12 mg/kg; oral; Male; Harlan Sprague Dawley
Rat [14] = assay: concentration in kidney after dosing; conditions: 6 h; dosed: Fluorotelomer alcohol 8+2; 24 mg/kg; oral; Male; Harlan Sprague Dawley
Rat [15] = assay: concentration in plasma after dosing; conditions: dosed: Fluorotelomer alcohol 8+2, 12 mg/kg, oral, Male, Harlan Sprague Dawley
Rat [16] = assay: concentration in plasma after dosing; conditions: dosed: Fluorotelomer alcohol 8+2, 12 mg/kg, oral, Male, Harlan Sprague Dawley; remark: listed apart in the source
Rat [17] = assay: concentration in plasma after dosing; conditions: dosed: 678-39-7, 12 mg/kg, iv, Male, F344
Rat [18] = assay: concentration in plasma after dosing; conditions: dosed: 678-39-7, 12 mg/kg, iv, Male, F344; remark: listed apart in the source
Rat [19] = assay: concentration in plasma after dosing; conditions: dosed: 678-39-7, 40 mg/kg, iv, Male, F344
Rat [20] = assay: concentration in plasma after dosing; conditions: dosed: 678-39-7, 40 mg/kg, iv, Male, F344; remark: listed apart in the source
Rat [21] = assay: concentration in plasma after dosing; conditions: dosed: 678-39-7, 40 mg/kg, iv, Male, F344; remark: listed apart in the source
Rat [22] = assay: concentration in kidney after dosing; conditions: 12 h; dosed: Fluorotelomer alcohol 8+2; 80 mg/kg; oral; Female; Harlan Sprague Dawley
Rat [23] = assay: concentration in plasma after dosing; conditions: dosed: 2-Hydroxy-4-methoxybenzophenone, 250 mg/kg, oral, Female, F344
Mouse [24] = assay: concentration in plasma after dosing; conditions: 10 min; dosed: 2-Hydroxy-4-methoxybenzophenone; 250 mg/kg; oral; Female; B6C3F1
Mouse [25] = assay: concentration in plasma after dosing; conditions: 0.25 h; dosed: 2-Hydroxy-4-methoxybenzophenone; 50 mg/kg; iv; Female; B6C3F1
Rat [26] = assay: concentration in plasma after dosing; conditions: dosed: 2-Hydroxy-4-methoxybenzophenone, 100 mg/kg, oral, Male, F344
Rat [27] = assay: concentration in plasma after dosing; conditions: dosed: 2-Hydroxy-4-methoxybenzophenone, 250 mg/kg, oral, Male, F344
Rat [28] = assay: concentration in plasma after dosing; conditions: dosed: 2-Hydroxy-4-methoxybenzophenone, 250 mg/kg, oral, Female, F344; remark: listed apart in the source
Mouse [29] = assay: concentration in plasma after dosing; conditions: 3 h; dosed: 2-Hydroxy-4-methoxybenzophenone; 250 mg/kg; oral; Male; B6C3F1
Mouse [30] = assay: concentration in plasma after dosing; conditions: 0.25 h; dosed: 2-Hydroxy-4-methoxybenzophenone; 500 mg/kg; oral; Male; B6C3F1
Rat [31] = assay: concentration in plasma after dosing; conditions: dosed: 2-Hydroxy-4-methoxybenzophenone, 8 mg/kg, iv, Male, F344
Rat [32] = assay: concentration in plasma after dosing; conditions: dosed: Nitrite, 80 mg/kg, oral, Female, F344
Rat [33] = assay: concentration in plasma after dosing; conditions: 20 min; dosed: Nitrite; 20 mg/kg; iv; Male; F344
Rat [34] = assay: concentration in plasma after dosing; conditions: 2 min; dosed: Nitrite; 40 mg/kg; oral; Female; F344
Rat [35] = assay: concentration in plasma after dosing; conditions: 10 min; dosed: Nitrite; 40 mg/kg; oral; Female; F344
Rat [36] = assay: concentration in plasma after dosing; conditions: 2 min; dosed: Nitrite; 80 mg/kg; oral; Female; F344

O=S(=O)([O-])C(F)(F)C(F)(F)C(F)(F)C(F)(F)F.[K+] [Potassium Perfluorobutane Sulfonate]
Conditions | concentration in brain [ng/g] | concentration in kidney [ng/g] | concentration in liver [ng/g] | concentration in plasma [µg/mL]
Rat [1] | – | – | 30300 | –
Rat [2] | 1210 | – | – | –
Rat [4] | – | – | – | 5.12
Rat [6] | – | 20700 | – | –

concentration in plasma [µg/mL]
Conditions | 0.25 h | 0.5 h | 6 h | 12 h
Rat [3] | – | 22.2 | – | 0.938
Rat [5] | 3.22 | – | 9.97 | –

O=C(O)C(F)(F)C(F)(F)C(F)(F)C(F)(F)C(F)(F)C(F)(F)C(F)(F)F [Perfluorooctanoic acid]
Conditions | concentration in brain [ng/g] | concentration in kidney [ng/g] | concentration in liver [ng/g]
Rat [7] | – | – | 10000
Rat [8] | – | – | 300
Rat [9] | 3490 | – | –
Rat [10] | – | – | 616
Rat [11] | – | – | 535
Rat [12] | – | – | 130000
Rat [13] | – | – | 7530
Rat [14] | – | 381 | –
Rat [22] | – | 626 | –

Conditions | concentration in plasma [µg/mL]
Rat [15], 48 h | 0.657
Rat [15], 192 h | 0.424
Rat [16], 48 h | 0.614
Rat [16], 192 h | 0.399
Rat [17], 0.25 h | 0.102
Rat [17], 24 h | 0.607
Rat [18], 3 h | 0.485
Rat [18], 5 min | 0.0583
Rat [19], 0.25 h | 0.97
Rat [19], 6 h | 1.76
Rat [20], 0.25 h | 0.465
Rat [20], 0.5 h | 220
Rat [20], 6 h | 1.54
Rat [20], 24 h | 1.64
Rat [21], 0.25 h | 276
Rat [21], 6 h | 77.7
Rat [21], 48 h | 0.0319

COc1ccc(C(=O)c2ccccc2)c(O)c1 [2-Hydroxy-4-methoxybenzophenone]
Conditions | concentration in plasma [µg/mL]
Rat [23], 0.25 h | 0.453
Rat [23], 4 h | 0.019
Rat [26], 0.25 h | 0.0889
Rat [26], 4 h | 0.0261
Rat [27], 0.25 h | 0.0555
Rat [27], 4 h | 0.084
Rat [28], 3 h | 0.0956
Rat [28], 10 min | 0.0269
Rat [31], 10 h | 0.00852
Rat [31], 10 min | 3.77

Conditions | concentration in plasma [µg/mL]
Mouse [24] | 0.625
Mouse [25] | 5.56
Mouse [29] | 0.0451
Mouse [30] | 0.395

O=N[O-] [Nitrite]
Rat [32]
Conditions | concentration in plasma [µg/mL]
0.5 h | 11.9
4 h | 2.4

Conditions | concentration in plasma [µg/mL]
Rat [33] | 7.6
Rat [34] | 7.3
Rat [35] | 26.6
Rat [36] | 7
